US20240391923A1, “METHIONINE ADENOSYLTRANSFERASE 2A INHIBITOR FOR TREATING MTAP DELETION-TYPE CANCER” (SUZHOU GENHOUSE BIO CO., LTD., priority 2022, published 2024)
Like-named read-outs stand apart in the source and are kept apart here.

Experiments:
[1] = target: MAT2A recombinant protein (Homo sapiens, UniProt P31153); test: MAT2A inhibitory activity (malachite green colorimetric enzyme assay); format: biochemical
Method in brief: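 Compounds tested over 10 points, 3-fold dilutions, top final concentration 1000 nM. Enzyme reaction: MAT2A, L-methionine, ATP, room temperature, 60 min, in HEPES pH 7.5 buffer with KCl, MgCl2 and DTT; inorganic phosphate read colorimetrically (malachite green, A630). Inhibition vs log concentration fitted for IC50.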

[2] = system: HCT116-MTAP wild-type (+/+)-cell strain; test: Tumor cell proliferation inhibition assay (CellTiter-Glo), HCT116-MTAP wild-type (+/+); format: cell-based; details: Homo sapiens, 120 h, HCT116-MTAP wild-type (+/+) cells, 5-day treatment
Method: (§1) After the HCT116-MTAP-knockout (−/−) cell strain, the HCT116-MTAP wild-type(+/+)-cell strain, the DOHH-2 cell strain, or the Hut-78 cell strain was treated with the test compound for 5 days, the ATP level was measured using a CellTiter-Glo kit of Promega to evaluate the inhibition of the test compound against the growth of the tumor cell strain.
(§2) In the present application, the HCT116-MTAP-knockout (−/−) cell strain, the HCT116-MTAP wild-type (+/+)-cell strain, the DOHH-2 cell strain, or the Hut-78 cell strain was seeded into a 96-well cell culture plate at an appropriate cell density. After 24 h, the cells were treated using the test compounds diluted 1:3 fold at the highest concentration of 10 μM for 10 gradients, and a DMSO treatment group was set up separately. The cells were cultured in a 37° C./5% CO2 incubator for 5 days.

[3] = system: HCT116-MTAP-knockout (−/−) cell strain; test: Tumor cell proliferation inhibition assay (CellTiter-Glo), HCT116-MTAP-knockout (-/-); format: cell-based; details: Homo sapiens, 120 h, HCT116-MTAP-knockout (−/−) cells, 5-day treatment
Method: as §1, §2

[4] = system: SDMA in HCT116-MTAP-knockout cell line; test: Cell symmetric dimethylarginine (SDMA) test, In-cell Western, HCT116-MTAP-knockout; format: cell-based; details: Homo sapiens, 96 h
[5] = system: SDMA in human colon cancer cell line HCT116; test: Cell symmetric dimethylarginine (SDMA) test, In-cell Western, HCT116 (MTAP wild-type); format: cell-based; details: Homo sapiens, HCT-116, 96 h
Source text: MAT2A catalyzes the reaction of L-methionine and ATP to generate SAM, inorganic phosphonic acid, and inorganic diphosphonic acid. SAM is an important methyl donor, and is a substrate of arginine methyltransferase 5 (PRMT5). PRMT5 catalyzes SDMA modification of multiple proteins within a cell. The intracellular SDMA modification level was detected by ICW (In-cell Western), and the inhibition of the test compound on the enzymatic activity of intracellular MAT2A was indirectly reflected.
In the present application, the human colon cancer cell line HCT116 and the corresponding HCT116-MTAP-knockout cell line were seeded into a 96-well cell culture plate at an appropriate cell density. After 24 h, the cells were treated using the test compounds diluted 1:4 fold at the highest concentration of 6 μM for 6 gradients, and a DMSO treatment group was set up separately. The cells were cultured in a 37° C./5% CO2 incubator for 4 days. To test the inhibitory activity of the test compounds against tumor cell SDMA, the medium was discarded, and the plate was washed 3 times with PBST. 4% paraformaldehyde was then used at room temperature for fixation for 20 min. The fixation solution was discarded, the plate was washed 3 times with PBST, and a special blocking solution was added to each well for blocking at room temperature for 2 h. The blocking solution was discarded. After the plate was washed 3 times with PBST, the plate was incubated with SDMA antibody at 4° C. overnight. The next day, the plate was washed 3 times with PBST. The secondary antibody and DRAQ5 were diluted to an appropriate concentration with the blocking solution, and incubated at room temperature for 2 h; the plate was washed 3 times with PBST, and the fluorescence signals at 700 nm and 800 nm were detected using a Li—COR Odyssey two-color near-infrared laser imager.
The data was then processed. After the corresponding background value was subtracted from each well, statistical analysis was performed on the 800 nm/700 nm ratio for each well, a sigmoidal dose-inhibition curve was plotted using a non-linear regression model, and IC50 values were fitted and calculated. Inhibition Rate (%)=(1−SDMA dose/SDMA DMSO control)*100. SDMA dose is the value of the drug treatment group, and SDMA DMSO control is the value of the DMSO control group.

[6] = Pharmacokinetic test in mice (IV and PO); format: in vivo; details: BALB/c mice; for AUC (in words) / half-life (T½) (in words): summary of Table 7; for AUC / clearance / bioavailability / half-life / Vd: mouse, plasma; for half-life: read-out: T½ (converted); for Vd: read-out: Vz
Hut-78 cell strain = test: Tumor cell proliferation inhibition assay (CellTiter-Glo), Hut-78; format: cell-based; details: Hut-78 cells, 5-day treatment
Method: as §1, §2

[7] = IC50 score class, read-out: MAT2A Inhibition (score)
[8] = IC50 score, read-out: Tumor cell 5-day relative growth inhibition (HCT116-MTAP+/+) (nM), score
[9] = IC50 value, read-out: Tumor cell 5-day relative growth inhibition (HCT116-MTAP+/+)
[10] = IC50 score, read-out: Tumor cell 5-day relative growth inhibition (HCT116-MTAP−/−) (nM), score
[11] = IC50 value, read-out: Tumor cell 5-day relative growth inhibition (HCT116-MTAP−/−)
[12] = IC50 score class, read-out: Cell 96 h SDMA Inhibition (HCT116-MTAP−/−) (score)
[13] = read-out: Cell 96 h SDMA Inhibition (HCT116-MTAP−/−)
[14] = IC50 score class, read-out: Cell 96 h SDMA Inhibition (HCT116-MTAP+/+) (score)
[15] = read-out: Cell 96 h SDMA inhibition (HCT116-MTAP+/+)
[16] = Homo sapiens, HuT78, 120 h, IC50 score, read-out: Tumor cell 5-day relative growth inhibition (Hut-78) (nM), score
[17] = Homo sapiens, HuT78, 120 h, IC50 value, read-out: Tumor cell 5-day relative growth inhibition (Hut-78)

MAT2A recombinant protein, sequence (P31153 whole entry): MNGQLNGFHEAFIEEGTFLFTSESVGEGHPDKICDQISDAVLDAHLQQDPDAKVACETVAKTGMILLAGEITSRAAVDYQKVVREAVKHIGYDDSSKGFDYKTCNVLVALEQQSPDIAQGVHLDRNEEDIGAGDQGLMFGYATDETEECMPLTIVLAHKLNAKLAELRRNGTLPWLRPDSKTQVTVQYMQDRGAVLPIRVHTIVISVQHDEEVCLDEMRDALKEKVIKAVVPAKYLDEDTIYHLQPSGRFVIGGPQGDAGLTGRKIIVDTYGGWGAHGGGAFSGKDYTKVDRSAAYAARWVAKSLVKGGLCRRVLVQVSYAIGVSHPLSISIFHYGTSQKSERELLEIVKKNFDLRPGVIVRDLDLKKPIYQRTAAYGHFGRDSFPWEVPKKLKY

| SMILES | IC50 [1, 7] [nM] | IC50 ([1]; read-out: MAT2A Inhibition) [nM] | IC50 [2, 8] [nM] | IC50 [2, 9] [nM] | IC50 [3, 10] [nM] | IC50 [3, 11] [nM] | IC50 [4, 12] [nM] | IC50 [4, 13] [nM] | IC50 [5, 14] [nM] | IC50 [5, 15] [nM] | AUC ([6]; IV 2 mg/kg) [µM·h] | clearance ([6]; IV 2 mg/kg) [mL/min/kg] | bioavailability ([6]; IV 2 mg/kg, PO 10 mg/kg) [%] | half-life ([6]; IV 2 mg/kg) [h] | Vd ([6]; IV 2 mg/kg) [L/kg] | AUC ([6]; PO 10 mg/kg) [µM·h] | half-life ([6]; PO 10 mg/kg) [h] | further results |
| --- | --- | --- | --- | --- | --- | --- | --- | --- | --- | --- | --- | --- | --- | --- | --- | --- | --- | --- |
| O=c1c2nn(C(F)F)cc2c2ccc(C(F)(F)F)nc2n1-c1cccc2[nH]ncc12 [Compound B245] | < 100 | 11 | 500 to 2000 | 1100 | < 500 | 242 | < 200 | 110 | > 3000 | 7200 | 200 | 0.3 | 80 | 10.8 | 0.3 | 807 | 18 | AUC (in words) [6]: relatively high; half-life (T½) (in words) [6]: relatively long |
| Cc1ncccc1-n1c(=O)c2nn(C)cc2c2ccc(C(F)(F)F)nc21 [Compound B179] |  |  |  |  |  |  |  |  |  |  |  |  |  |  |  |  |  | IC50 (Hut-78 cell strain; IC50 score, read-out: Tumor cell 5-day relative growth inhibition (Hut-78) (nM), score): ≥ 2000 nM; IC50 (Hut-78 cell strain; IC50 value, read-out: Tumor cell 5-day relative growth inhibition (Hut-78)): 7990 nM |
| Cc1c2c(nn1C(F)F)c(=O)n(-c1cccc3[nH]ncc13)c1nc(C(F)(F)F)ccc21 [Compound B254] | < 100 | 23.7 | 500 to 2000 | 1630 | < 500 | 382 | < 200 | 67 |  |  | 245 | 0.317 | 126 | 5.73 | 0.2 | 1470 | 5.79 | AUC (in words) [6]: relatively high; half-life (T½) (in words) [6]: relatively long |
| [2H]C([2H])([2H])n1cc2c(n1)c(=O)n(-c1cccc3[nH]ncc13)c1nc(C(F)(F)F)ccc21 [Compound B256] | < 100 | 16.9 | 500 to 2000 | 577 | < 500 | 29.5 | < 200 | 28 |  |  | 37.8 | 2.28 | 175 | 5.28 | 1 | 331 | 8.61 | AUC (in words) [6]: relatively high; half-life (T½) (in words) [6]: relatively long |
| Cn1cc2c(n1)c(=O)n(-c1cccnc1C#N)c1nc(C(F)(F)F)ccc21 [Compound B207] |  |  |  |  |  |  | < 200 | 106 | 200 to 1000 | 495 |  |  |  |  |  |  |  | IC50 (Hut-78 cell strain; [16]): < 500 nM; IC50 (Hut-78 cell strain; [17]): 179 nM |
| Cn1cc2c(n1)c(=O)n(Cc1ccn[nH]1)c1nc(C(F)(F)F)ccc21 [Compound B123] | < 100 | 53.7 |  |  |  |  |  |  |  |  |  |  |  |  |  |  |  | IC50 (Hut-78 cell strain; [16]): ≥ 2000 nM; IC50 (Hut-78 cell strain; [17]): > 2000 nM |
| Cn1cc2c(n1)c(=O)n(-c1cccc3ccccc13)c1cc(Cl)c(F)cc21 [Compound B370] | < 100 | 58 | ≥ 2000 | > 10000 | ≥ 2000 | > 10000 | 200 to 1000 | 554 | > 3000 | > 10000 |  |  |  |  |  |  |  |  |
| Cn1cc2c(n1)c(=O)n(-c1cccnc1C(F)(F)F)c1cc(Cl)ccc21 [Compound B68] | < 100 | 45.1 | ≥ 2000 | > 2000 | < 500 | 41.4 | 200 to 1000 | 213 | > 3000 | > 3000 |  |  |  |  |  |  |  |  |
| O=c1c2nn(C(F)F)cc2c2cc(F)c(C3CC3)nc2n1-c1cccnc1C1CC1 [Compound B361] | < 100 | 15 | ≥ 2000 | > 10000 | < 500 | 128 | < 200 | 12 | > 3000 | > 10000 | 31.5 | 2.42 | 65 | 6.4 | 1.34 | 93.4 | 8 |  |
| O=c1c2n[nH]cc2c2cc(F)c(Cl)cc2n1-c1cccc2[nH]ncc12 [Compound B263] | < 100 | 9.3 | < 500 | 173 | < 500 | 21 | < 200 | 3.7 | 200 to 1000 | 687 |  |  |  |  |  |  |  |  |
| Cn1cc2c(n1)c(=O)n(-c1cccnc1C1CC1)c1nc(C(F)(F)F)ccc21 [Compound B183] |  |  |  |  |  |  | < 200 | 47.9 | < 200 | 130 |  |  |  |  |  |  |  | IC50 (Hut-78 cell strain; [16]): < 500 nM; IC50 (Hut-78 cell strain; [17]): 108 nM |
